Measurements as given in patent publication US6479499B1.
In brackets after ≈: the same amount, converted by molar mass. Where two headings read alike, the source gives them in different places. Values belong to the compound of their own block, whether it stands above or below them.

Experiments:
[1] = system: platelet aggregation induced by arachidonic acid (AA); assay: Antiplatelet assay, arachidonic acid-induced aggregation; assay type: cell-based, rabbit; conditions: for IC50 / Percent aggregation, AA: AA 100 μM
Procedure: (§1) c. Antiplatelet assay. Blood, collected from the marginal ear vein of rabbits was mixed with EDTA to a final concentration of 6 mM and centrifuged at 90 g for 10 mm at room temperature to obtain platelet-rich plasma. The latter was further centrifuged at 500 g for 10 mm and the platelets were washed with Tyrode's solution without EDTA. After centrifugation at the same conditions, the platelets were suspended in Tyrode's solution with the following compositions (mM): NaCl (136.8), KCl (2.8), NaNCO3(11.9), MgCl2(1.1), NaH2PO4(0.33), CaCl2(1.0), and glucose (11.2). Platelet numbers were determined with a Coulter Counter (Model ZM) and adjusted to 4.5×10^8 platelets/ml.
(§2) Aggregation was measured by the turbidimetric method [O'brien, J. R. J. Clin. Pathol. 1962, 15,452] with a dual-channel Lumi aggregometer (Model 1020, Payton, Canada). All glass ware was siliconized. Test compounds were added one minute before the addition of the aggregation inducer and the platelet suspension was stirred at 900 rpm. The percentage of aggregation was calculated as previously described [Teng, C. M.; Chen, W. Y.; Ko, W. C.; Ouyang, C. Biochem. Biophys. Acta. 1987, 924, 375].

[2] = system: platelet aggregation induced by thrombin; assay: Antiplatelet assay, thrombin-induced aggregation; assay type: cell-based, rabbit; conditions: for Percent aggregation, thrombin: thrombin 0.1 U/ml
Procedure: as §1, §2

[3] = system: platelet aggregation induced by collagen; assay: Antiplatelet assay, collagen-induced aggregation; assay type: cell-based, rabbit
Procedure: as §1, §2

[4] = system: platelet aggregation induced by platelet-activating factor (PAF); assay: Antiplatelet assay, PAF-induced aggregation; assay type: cell-based, rabbit; conditions: for Percent aggregation, PAF: PAF 2 ng/ml
Procedure: as §1, §2

[5] = system: epidermoid carcinoma of the nasopharynx (KB); assay: In vitro cytotoxicity, KB; conditions: Homo sapiens
[6] = system: human ovarian cancer (1A9); assay: In vitro cytotoxicity, 1A9; conditions: 96 h, read-out: ED50 1A9
bone (HOS) = assay: In vitro cytotoxicity, HOS; conditions: Homo sapiens
prostate cancer (PC3) = assay: In vitro cytotoxicity, PC3; conditions: Homo sapiens
[7] = system: ileocecal carcinoma (HCT-8); assay: In vitro cytotoxicity, HCT-8; conditions: Homo sapiens
lung carcinoma (A-549) = assay: In vitro cytotoxicity, A-549; conditions: Homo sapiens
breast cancer (MCF-7) = assay: In vitro cytotoxicity, MCF-7; conditions: Homo sapiens, MCF7, 96 h, read-out: ED50 MCF-7
[8] = system: P-gp-expressing epidermoid carcinoma of the nasopharynx (KB-VIN); assay: In vitro cytotoxicity, KB-VIN; conditions: Homo sapiens, KBVIN, 96 h, read-out: ED50 KB-VIN
melanoma (SKMEL-2) = assay: In vitro cytotoxicity, SKMEL-2; conditions: Homo sapiens
bovine brain tubulin = assay: Tubulin polymerization assay (antimicrotubule assay); conditions: read-out: ITP (inhibition of tubulin polymerization) IC50; tubulin […] (12 μM), 26° C., 20 min
[9] = Oryctolagus cuniculus, Platelet, 37° C., 1 min preincubation, read-out: IC50, platelet aggregation induced by arachidonic acid (in vitro) (Table 6)

Compound: CC(=O)Oc1ccccc1C(=O)O [Aspirin]
IC50 [1, 9]: 20 µM

Compound: CCOC(=O)COc1nc(-c2ccccc2)nc2ccccc12 [Compound 71, 4-Ethoxycarbonylmethoxy-2-phenylquinazoline]
IC50 [1, 9]: 26.9 µM

Compound: COc1nc(-c2ccccc2)nc2ccccc12 [Compound 69, 4-Methoxy-2-phenylquinazoline]
Inhibition of thrombin-induced platelet aggregation in words ([2]; Table 5): poor inhibitors
Percent aggregation, thrombin ([2]; compound 20 μg/ml): 88.1 ± 0.8(3) %
Percent aggregation, thrombin ([2]; compound 50 μg/ml): 13.3 ± 5.3(3) %
Percent aggregation, thrombin ([2]; compound 100 μg/ml, 37° C., 1 min preincubation): 2.8 ± 2.3(3) %
IC50 [1, 9]: 7.2 µM
IC50 ([1]; Oryctolagus cuniculus, Platelet, read-out: IC50, AA-induced platelet aggregation (Table 5)): 7.2 µM
Inhibition of AA-induced platelet aggregation in words ([1]; Table 5): relatively stronger inhibitors
Percent aggregation, AA ([1]; compound 0.5 μg/ml): 86.0 ± 1.2(4) %
Percent aggregation, AA ([1]; compound 1 μg/ml): 65.0 ± 8.1(4) %
Percent aggregation, AA ([1]; compound 2 μg/ml): 35.3 ± 14.9(4) %
Percent aggregation, AA ([1]; compound 5 μg/ml): 15.0 ± 11.8(4) %
Percent aggregation, AA ([1]; compound 10 μg/ml): 0.0 ± 0.0(4) %
Percent aggregation, AA ([1]; compound 100 μg/ml): 0.0 ± 0.0(4) %
IC50 ([3]; Oryctolagus cuniculus, Platelet, collagen 10 μg/ml, read-out: IC50, collagen-induced platelet aggregation (Table 5)): 8.47 µM
Inhibition of collagen-induced platelet aggregation in words ([3]; Table 5): relatively stronger inhibitors
Percent aggregation, collagen ([3]; compound 0.2 μg/ml, collagen 10 μg/ml): 88.4 ± 1.9(4) %
Percent aggregation, collagen ([3]; compound 0.5 μg/ml, collagen 10 μg/ml): 76.2 ± 3.7(4) %
Percent aggregation, collagen ([3]; compound 1 μg/ml, collagen 10 μg/ml): 52.6 ± 7.5(4) %
Percent aggregation, collagen ([3]; compound 2 μg/ml, collagen 10 μg/ml): 43.0 ± 6.4(4) %
Percent aggregation, collagen ([3]; compound 5 μg/ml, collagen 10 μg/ml): 31.5 ± 6.4(4) %
Percent aggregation, collagen ([3]; compound 10 μg/ml, collagen 10 μg/ml): 1.1 ± 0.9(4) %
Percent aggregation, collagen ([3]; compound 20 μg/ml, collagen 10 μg/ml): 0.0 ± 0.0(4) %
Percent aggregation, collagen ([3]; compound 100 μg/ml, collagen 10 μg/ml): 0.0 ± 0.0(4) %
Inhibition of PAF-induced platelet aggregation in words ([4]; Table 5): poor inhibitors
Percent aggregation, PAF ([4]; compound 20 μg/ml): 87.9 ± 1.8(4) %
Percent aggregation, PAF ([4]; compound 50 μg/ml): 38.1 ± 8.3(4) %
Percent aggregation, PAF ([4]; compound 100 μg/ml): 2.1 ± 1.8(4) %

Compound: COc1ccc(C2NC(=O)c3ccccc3N2)cc1OC (racemic) [Compound 66, 2,3-Dihydro-2-(3′,4′-dimethoxyphenyl)-4-quinazolinone]
IC50 ([5]; 96 h, read-out: ED50 KB): > 20 µg/mL
inhibition at 20 µg/mL ([5]; read-out: Inhibition at highest test concentration (in brackets), KB): 28%
IC50 [6]: 14.6 µg/mL (≈ 51.4 µM)
IC50 (bone (HOS); 96 h, read-out: ED50 HOS): > 20 µg/mL
inhibition at 20 µg/mL (bone (HOS); read-out: Inhibition at highest test concentration (in brackets), HOS): 24%
IC50 (prostate cancer (PC3); 96 h, read-out: ED50 PC3): > 20 µg/mL
inhibition at 20 µg/mL (prostate cancer (PC3); read-out: Inhibition at highest test concentration (in brackets), PC3): 30%
IC50 ([7]; HCT-8, 96 h, read-out: ED50 HCT-8): > 20 µg/mL
inhibition at 20 µg/mL ([7]; HCT-8, read-out: Inhibition at highest test concentration (in brackets), HCT-8): 25%
IC50 (lung carcinoma (A-549); A549, 96 h, read-out: ED50 A-549): > 20 µg/mL
inhibition at 20 µg/mL (lung carcinoma (A-549); A549, read-out: Inhibition at highest test concentration (in brackets), A-549): 41%
IC50 (breast cancer (MCF-7)): 20 µg/mL (≈ 70.3 µM)
IC50 [8]: 16 µg/mL (≈ 56.3 µM)
IC50 (melanoma (SKMEL-2); SK-MEL-2, 96 h, read-out: ED50 SKMEL-2): > 20 µg/mL
inhibition at 20 µg/mL (melanoma (SKMEL-2); SK-MEL-2, read-out: Inhibition at highest test concentration (in brackets), SKMEL-2): 24%
IC50 (bovine brain tubulin): > 40 µM

Further lines, results first:

IC50 [1, 9]: 5.36 µM
Compound: CCOc1nc(-c2ccc(OC)cc2)nc2ccccc12 [Compound 76, 4-Ethoxy-2-(4′-methoxyphenyl)quinazoline]

IC50 [1, 9]: 183 µM
Compound: Cn1c(-c2ccccc2)nc2ccccc2c1=O [Compound 77, N^3-methyl-2-phenyl-4-quinazolinone]

IC50 [1, 9]: 0.25 µM
Compound: COc1ccc2c(c1)c(CC(=O)O)c(C)n2C(=O)c1ccc(Cl)cc1 [Indomethacin]

IC50 ([1]; 37° C., 1 min preincubation, read-out: IC50, platelet aggregation induced by arachidonic acid (in vitro) (Table 6)): > 270 µM
Compound: N^3-Ethoxycarbonylmethoxy-2-phenyl-4-quinazolinone [Compound 79]

IC50 [1, 9]: 30.7 µM
Compound: CCOC(=O)CCCOc1nc(-c2ccccc2)nc2ccccc12 [Compound 72, 4-Ethoxycarbonylpropoxy-2-phenylquinazoline]
